US12655139B2, “Isoxazolidines as RIPK1 inhibitors and use thereof” (SANOFI, priority 2020, dated 2026)
Where two headings read alike, the source gives them in different places.

What was measured:
[1] = target: T1, hRIPK1 (aa 1-375) fusion protein (Homo sapiens, UniProt Q13546); assay: ADP-Glo kinase assay, RIPK1 autophosphorylation; format: biochemical
T1 construct: hRIPK1 (aa 1-375) fusion protein
T1 sequence (Q13546 1-375): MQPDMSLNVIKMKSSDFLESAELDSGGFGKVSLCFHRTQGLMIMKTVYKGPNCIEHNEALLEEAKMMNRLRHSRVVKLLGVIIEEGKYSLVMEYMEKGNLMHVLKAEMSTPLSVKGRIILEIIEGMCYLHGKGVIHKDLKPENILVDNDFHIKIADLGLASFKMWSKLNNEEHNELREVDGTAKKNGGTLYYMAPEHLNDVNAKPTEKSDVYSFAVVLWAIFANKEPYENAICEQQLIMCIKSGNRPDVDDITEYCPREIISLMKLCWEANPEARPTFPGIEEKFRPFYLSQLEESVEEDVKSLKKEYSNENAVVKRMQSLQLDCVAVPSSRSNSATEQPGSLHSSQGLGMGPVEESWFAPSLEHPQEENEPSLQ
Protocol: Evaluation of Receptor-Interacting Protein Kinase 1 Inhibition.
The catalytic activity of RIPK1 was measured by monitoring the conversion of Adenosine triphosphate (ATP) to Adenosine diphosphate (ADP) due to autophosphorylation using an ADP-Glo kinase kit (Promega, catalog no. V9104).
After another 240 minutes incubation at room temperature, 5 μl Promega ADP-Glo reagent I were added to quench the reaction and deplete unconsumed ATP. After an incubation period of 30 minutes, 10 μl Promega ADP-Glo detection reagent II were added resulting in conversion of ADP to ATP, which generates a light-reaction between luciferase and luciferin. Luminescence was quantified after 30 minutes with a Pherastar FS (BMG LABTECH, Ortenberg).
The adjustment was obtained by nonlinear regression using the Levenberg Marquardt algorithm.

U937 cells = assay: Cellular assay in U937 cells on cell death (necroptosis), TNFα/zVAD.fmk; format: cell-based
In short: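 U937 cells with 100 ng/ml TNFα plus 50 μM zVAD.fmk (pre-addition suspension levels) received 10 compound concentrations (10 μM–0.26 nM or 1 μM–0.07 nM) for 18–24 h at 37 °C. Live cells were read by MTS formazan absorbance at 490 nm after 4 h. % inhibition is relative to the maximal value without TNFα/zVAD.fmk.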

[2] = Homo sapiens, U-937, Table 2, read-out: U937 IC50

| SMILES | IC50 ([1]; Table 1) [nM] | IC50 (U937 cells; [2]) [µM] | IC50 ([1]; Key compound table 4) [nM] | IC50 (U937 cells; Homo sapiens, U-937, Key compound table 4, read-out: U937 IC50 (uM) Mean) [µM] | IC50 (U937 cells; Table 2, read-out: U937 IC50) [µM] |
| --- | --- | --- | --- | --- | --- |
| N#Cc1cncc([C@@H]2CCON2C(=O)C2CCN(c3cncc(C(N)=O)n3)CC2)c1 [Ex. 71] | 25.6 | 0.964 | – | – | – |
| N#Cc1cncc([C@@H]2CCON2C(=O)C2CCN(c3cnc(C(N)=O)cn3)CC2)c1 [Ex. 072] | 25 | 0.554 | – | – | – |
| N#Cc1cncc([C@@H]2CCON2C(=O)C2CCN(c3ncnc(C(N)=O)c3F)CC2)c1 [Ex. 073] | 11 | 0.103 | – | – | – |
| NC(=O)c1nc(N2CCC(C(=O)N3OCC[C@H]3c3cnccn3)CC2)ncc1F [Ex. 075] | – | – | 8 | 0.003 | – |
| NC(=O)c1nc(N2CCC(C(=O)N3OCC[C@H]3c3cncc(F)c3)CC2)ncc1F [Ex. 080] | 10.3 | 0.00337 | – | – | – |
| Cc1ncc([C@@H]2CCON2C(=O)C2CCN(c3nccc(C(N)=O)n3)CC2)cc1C#N [Ex. 081] | 15.7 | 0.0297 | – | – | – |
| NC(=O)c1ccnc(N2CCC(C(=O)N3OCC[C@H]3c3ccc(Cl)cn3)CC2)n1 [Ex. 083] | 16.1 | 0.0495 | – | – | – |
| Cc1ncc([C@@H]2CCON2C(=O)C2CCN(c3ncc(F)c(C(N)=O)n3)CC2)cc1C#N [Ex. 085] | 15.3 | 0.0206 | – | – | – |
| Cc1cnc([C@@H]2CCON2C(=O)C2CCN(c3nccc(C(N)=O)n3)CC2)cn1 [Ex. 087] | 9.55 | 0.0505 | – | – | – |
| CCOC(=O)N1CC(NC(=O)c2ccnc(N3CCC(C(=O)N4OCC[C@H]4c4cncc(C#N)c4)CC3)n2)C1 [Ex. 088] | 33.6 | 0.158 | – | – | – |
| N#Cc1cncc([C@@H]2CCON2C(=O)[C@H]2CCN(c3nccc(C(N)=O)n3)C[C@@H]2F)c1 [Ex. 093] | 4.16 | 0.0193 | – | – | – |
| Cc1cncc([C@@H]2CCON2C(=O)C2CCN(c3ncc(C)c(C(N)=O)n3)CC2)n1 [Ex. 097] | 24 | 0.0415 | – | – | – |
| Cc1cnc(N2CCC(C(=O)N3OCC[C@H]3c3cncc(F)c3)CC2)nc1C(N)=O [Ex. 098] | 13.7 | 0.0325 | – | – | – |
| Cc1cnc(N2CCC(C(=O)N3OCC[C@H]3c3cnccn3)CC2)nc1C(N)=O [Ex. 99] | 22.3 | 0.054 | – | – | – |
| CSc1nc(N2CCC(C(=O)N3OCC[C@H]3c3cncc(C#N)c3)CC2)ncc1F [Ex. 103, 5-[(3S)-2-[1-(5-Fluoro-4-methylsulfanyl-pyrimidin-2-yl)piperidine-4-carbonyl]isoxazolidin-3-yl]pyridine-3-carbonitrile] | 17.5 | 0.00144 | – | – | – |
| C[S+]([O-])c1nc(N2CCC(C(=O)N3OCC[C@H]3c3cncc(C#N)c3)CC2)ncc1F (stereo partly drawn) [Ex. 104] | 13.4 | 0.736 | – | – | – |
| CS(=O)(=O)c1nc(N2CCC(C(=O)N3OCC[C@H]3c3cncc(C#N)c3)CC2)ncc1F [Ex. 105] | 11.2 | 7.94 | – | – | – |
| N#Cc1ccc([C@@H]2CCON2C(=O)C2CCN(c3ncc(F)c(C(N)=O)n3)CC2)nc1 [Ex. 106] | 42.9 | 0.548 | – | – | – |
| N#Cc1ccc([C@@H]2CCON2C(=O)C2CCN(c3cc(C(N)=O)ncn3)CC2)nc1 [Ex. 107] | 364 | 7.52 | – | – | – |
| N#Cc1ccc([C@@H]2CCON2C(=O)C2CCN(c3nccc(C(N)=O)n3)CC2)nc1 [Ex. 108] | 81.6 | 1.01 | – | – | – |
| Cc1cc([C@@H]2CCON2C(=O)C2CCN(c3cc(C(N)=O)ncn3)CC2)co1 [Ex. 109] | 19.3 | 0.00531 | – | – | – |
| N#Cc1cncc([C@@H]2CCON2C(=O)C2CCN(c3ncc(F)c(C#N)n3)CC2)c1 [Ex. 111] | 28.2 | 0.0116 | – | – | – |
| Cc1nsc(N2CCC(C(=O)N3OCC[C@H]3c3cncc(C#N)c3)CC2)n1 [Ex. 113] | 122 | 0.773 | – | – | – |
| COc1nc(N2CCC(C(=O)N3OCC[C@H]3c3cncc(C#N)c3)CC2)ncc1F [Ex. 114] | 14 | 0.00785 | – | – | – |
| N#Cc1cncc([C@@H]2CCON2C(=O)C2(F)CCN(c3nccc(C(N)=O)n3)CC2(F)F)c1 (stereo partly drawn) [Ex. 115] | 24.7 | 0.0627 | – | – | – |
| COc1nc(N2CCC(C(=O)N3OCC[C@H]3c3cncc(C)n3)CC2)ncc1F [Ex. 116] | 21.4 | 0.0045 | – | – | – |

| SMILES | IC50 ([1]; Table 1) [nM] | IC50 (U937 cells; [2]) [µM] | IC50 ([1]; Key compound table 4) [nM] | IC50 (U937 cells; Homo sapiens, U-937, Key compound table 4, read-out: U937 IC50 (uM) Mean) [µM] | IC50 (U937 cells; Table 2, read-out: U937 IC50) [µM] |
| --- | --- | --- | --- | --- | --- |
| N#Cc1cncc([C@@H]2CCON2C(=O)C2CCN(c3cnc(Cl)nc3C(=O)O)CC2)c1 [Ex. 121] | > 33000 | 4.44 | – | – | – |
| N#Cc1cncc([C@@H]2CCON2C(=O)C2CCN(c3ncc(F)c(C(N)=O)n3)CC2F)c1 (stereo partly drawn) [Ex. 154] | 21.9 | – | – | – | 0.0388 |
| N#Cc1cncc([C@@H]2CCON2C(=O)C2CCN(c3ncc(F)c(C(N)=O)n3)CC2F)c1 (stereo partly drawn) [Ex. 155] | 16.5 | – | – | – | 0.00406 |
| N#Cc1cncc([C@@H]2CCON2C(=O)C2CCN(c3ccnc(C(N)=O)n3)CC2)c1 [Ex. 156] | 297 | 0.927 | – | – | – |
| N#Cc1cncc([C@@H]2CCON2C(=O)C2CCN(c3ccnc(Br)n3)CC2)c1 [Ex. 157] | 43.9 | 0.114 | – | – | – |
| N#Cc1cncc([C@@H]2CCON2C(=O)C2CCN(c3cc(Cl)ncn3)CC2)c1 [Ex. 159] | 31.8 | 0.0771 | – | – | – |
| O=C(O)c1nc(Cl)ncc1N1CCC(C(=O)N2OCC[C@H]2c2cnccn2)CC1 [Ex. 164] | 17500 | 1.97 | – | – | – |
| N#Cc1cncc([C@@H]2CCON2C(=O)C2CCN(c3cc(Br)ncn3)CC2)c1 [Ex. 165] | 25 | 0.0527 | – | – | – |
| N#Cc1cc([C@@H]2CCON2C(=O)C2CCN(c3ncc(F)c(C(N)=O)n3)CC2)cs1 [Ex. 166] | 37.2 | 0.0597 | – | – | – |
| N#Cc1cc([C@@H]2CCON2C(=O)C2CCN(c3ncc(F)c(C(N)=O)n3)CC2)co1 [Ex. 167] | 31.1 | 0.048 | – | – | – |
| N#Cc1cc([C@@H]2CCON2C(=O)C2CCN(c3nccc(C(N)=O)n3)CC2)cs1 [Ex. 168] | 45.4 | 0.0792 | – | – | – |
| Cc1nc([C@@H]2CCON2C(=O)C2CCN(c3ncc(F)c(C(N)=O)n3)CC2)cs1 [Ex. 170] | 21.7 | 0.0165 | – | – | – |
| N#Cc1cc([C@@H]2CCON2C(=O)C2CCN(c3nccc(C(N)=O)n3)CC2)co1 [Ex. 171] | 51.9 | 0.0858 | – | – | – |
| NC(=O)c1nc(N2CCC(C(=O)N3OCC[C@H]3c3ccccn3)CC2)ncc1F [Ex. 175] | 22.3 | 0.0446 | – | – | – |
| N#Cc1cc([C@@H]2CCON2C(=O)C2CCN(c3ncc(F)c(C(N)=O)n3)CC2)cnn1 [Ex. 178] | 112 | 1.3 | – | – | – |
| Cc1nc(Cl)nc(N2CCC(C(=O)N3OCC[C@H]3c3cnccn3)CC2)n1 [Ex. 180] | 32 | 1.05 | – | – | – |
| Nc1nc(Cl)nc(N2CCC(C(=O)N3OCC[C@H]3c3cnccn3)CC2)n1 [Ex. 184] | 3.26 | 0.00179 | – | – | – |
| N#Cc1nc([C@@H]2CCON2C(=O)C2CCN(c3ncc(F)c(C(N)=O)n3)CC2)cs1 [Ex. 189] | 30.3 | 0.102 | – | – | – |
| N#Cc1cncc([C@@H]2CCON2C(=O)C2CCN(c3nccc(C(N)=O)n3)CC2)c1 [compound 4] | 23.8 | 0.0221 | – | – | – |
| Cc1cncc([C@@H]2CCON2C(=O)C2CCN(c3nccc(C(N)=O)n3)CC2)n1 [compound 44] | 9.31 | 0.00847 | – | – | – |
| N#Cc1cncc([C@@H]2CCON2C(=O)C2CCN(c3ncc(F)c(C(N)=O)n3)CC2)c1 [compound 68] | 14.7 | 0.00325 | – | – | – |
| NC(=O)c1nc(N2CCC(C(=O)N3OCC[C@H]3c3cnccn3)CC2)ncc1F [compound 75] | 8.46 | 0.00273 | – | – | – |
| CC1(CCNC(=O)c2ccnc(N3CCC(C(=O)N4OCC[C@H]4c4cncc(C#N)c4)CC3)n2)CC1 [compound 77, 2-[4-[(3S)-3-(5-cyano-3-pyridyl)isoxazolidine-2-carbonyl]-1-piperidyl]-N-[2-(1-methylcyclo-propyl)ethyl]pyrimidine-4-carboxamide] | 28.1 | 0.0385 | – | – | – |
| CC(C)(C)OC(=O)N1CC(NC(=O)c2ccnc(N3CCC(C(=O)N4OCC[C@H]4c4cncc(C#N)c4)CC3)n2)C1 [compound 78, Tert-butyl 3-[[2-[4-[(3S)-3-(5-cyano-3-pyridyl)isoxazolidine-2-carbonyl]-1-piperidyl]pyrimidine-4-carbonyl]amino]azetidine-1-carboxylate] | 52.9 | 0.316 | – | – | – |
| Cc1cnc([C@@H]2CCON2C(=O)C2CCN(c3ncc(F)c(C(N)=O)n3)CC2)cn1 [compound 90, 5-fluoro-2-[4-[(3S)-3-(5-methylpyrazin-2-yl)isoxazolidine-2-carbonyl]-1-piperidyl]pyrimidine-4-carboxamide] | 12.6 | 0.0381 | – | – | – |
